Drawing on ChEMBL document CHEMBL2010723, “Assessment of partially deoxygenated deoxynojirimycin derivatives as glucosylceramide synthase inhibitors” (ACS Med Chem Lett, 2011), this text covers IC50 for 24 compounds.

Usually pIC50 stands for the negative decadic logarithm of the IC50, by convention in mol/L.

pIC50: −log10 of the molar value.

The target of the first test is T1, Ceramide glucosyltransferase (Mus musculus, UniProt O88693).
T1 sequence (O88693 whole entry): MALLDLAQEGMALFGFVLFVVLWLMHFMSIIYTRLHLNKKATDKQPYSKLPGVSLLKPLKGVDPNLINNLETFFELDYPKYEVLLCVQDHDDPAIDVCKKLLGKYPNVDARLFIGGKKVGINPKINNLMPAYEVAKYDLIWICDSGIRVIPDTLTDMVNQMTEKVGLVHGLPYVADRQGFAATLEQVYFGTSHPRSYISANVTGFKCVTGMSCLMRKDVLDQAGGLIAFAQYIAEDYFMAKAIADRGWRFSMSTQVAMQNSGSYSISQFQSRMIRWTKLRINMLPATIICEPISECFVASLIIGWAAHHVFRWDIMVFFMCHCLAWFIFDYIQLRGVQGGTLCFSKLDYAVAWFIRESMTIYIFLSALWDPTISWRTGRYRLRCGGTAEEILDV
Kind of test: Inhibition of glucosylceramide synthase in mouse RAW cells preincubated for 15 mins followed by substrate addition and measured after 1 hr by fluorescence scanner. Format: cell-based.
The compound `OC[C@H]1[C@H](O)[C@@H](O)CCN1CCCCCOCC12CC3CC(CC(C3)C1)C2` gave a pIC50 below 5.00.

Consider `OC[C@@H]1[C@H](O)CCCN1CCCCCOCC12CC3CC(CC(C3)C1)C2`, for which the pIC50 is below 5.00.

Compound `OC[C@@H]1[C@@H](O)[C@H](O)CCN1CCCCCOCC12CC3CC(CC(C3)C1)C2` showed a pIC50 below 5.00.

With `OC[C@H]1[C@@H](O)[C@@H](O)CCN1CCCCCOCC12CC3CC(CC(C3)C1)C2`, the pIC50 was below 5.00.

As to `CCCCN1CC=C[C@@H](O)[C@H]1CO`, the pIC50 was below 5.00.

Compound `OC[C@@H]1[C@H](O)C=CCN1CCCCCOCC12CC3CC(CC(C3)C1)C2` gave a pIC50 below 5.00.

`OC[C@H]1[C@H](O)C=CCN1CCCCCOCC12CC3CC(CC(C3)C1)C2` showed a negative-log IC50 (pIC50) below 5.00.

For `OC[C@@H]1[C@H](O)[C@H](O)CCN1CCCCCOCC12CC3CC(CC(C3)C1)C2`, the pIC50 was below 5.00.

`OC[C@@H]1[C@@H](O)CCCN1CCCCCOCC12CC3CC(CC(C3)C1)C2` had a pIC50 below 5.00.

With `OC[C@H]1[C@@H](O)CCCN1CCCCCOCC12CC3CC(CC(C3)C1)C2`, the pIC50 is below 5.00.

Regarding `CCCCN1CCC[C@@H](O)[C@@H]1CO`, the pIC50 is below 5.00.

Compound `CCCCN1CC[C@H](O)[C@H](O)[C@H]1CO` gave a pIC50 below 5.00.

Consider `CCCCN1CC[C@H](O)[C@H](O)[C@@H]1CO`, for which the pIC50 is below 5.00.

On to `CCCCN1CC[C@H](O)[C@@H](O)[C@@H]1CO`, for which the pIC50 was below 5.00.

Turning to `OC[C@@H]1[C@H](O)[C@@H](O)CCN1CCCCCOCC12CC3CC(CC(C3)C1)C2`, the pIC50 was below 5.00.

`OC[C@H]1NCC=C[C@H]1O` showed a pIC50 below 5.00.

Regarding `OC[C@@H]1NCC[C@H](O)[C@H]1O`, the pIC50 is below 5.00.

Regarding `OC[C@H]1NCCC[C@@H]1O`, the pIC50 was below 5.00.

`OC[C@H]1NCC[C@@H](O)[C@@H]1O` [FAGOMINE] gave a pIC50 below 5.00.

The compound `OC[C@@H]1NCC[C@@H](O)[C@@H]1O` showed a pIC50 below 5.00.

Take `CCCCN1CC[C@@H](O)[C@H](O)[C@H]1CO`: the pIC50 was below 5.00.

For the compound `OC[C@H]1NCCC[C@H]1O`, the pIC50 was below 5.00.

Regarding `OC[C@H]1NCC[C@@H](O)[C@H]1O`, the pIC50 was below 5.00.

Regarding `CCCCN1CC[C@H](O)[C@@H](O)[C@H]1CO`, the pIC50 was below 5.00.

Target in another test: not listed separately
Kind of test: Inhibition of recombinant glucosylceramidase 1 using 4-methylumbelliferyl-B-glucoside as substrate by fluorimetric analysis.
On to `OC[C@H]1[C@H](O)[C@@H](O)CCN1CCCCCOCC12CC3CC(CC(C3)C1)C2`, for which the pIC50 is 3.70.

For the compound `OC[C@@H]1[C@H](O)CCCN1CCCCCOCC12CC3CC(CC(C3)C1)C2`, the pIC50 was 3.46.

With `OC[C@@H]1[C@@H](O)[C@H](O)CCN1CCCCCOCC12CC3CC(CC(C3)C1)C2`, the pIC50 was 5.00.

On to `OC[C@H]1[C@@H](O)[C@@H](O)CCN1CCCCCOCC12CC3CC(CC(C3)C1)C2`, for which the pIC50 is 3.70.

For the compound `CCCCN1CC=C[C@@H](O)[C@H]1CO`, the pIC50 was below 3.00.

`OC[C@@H]1[C@H](O)C=CCN1CCCCCOCC12CC3CC(CC(C3)C1)C2`: the pIC50 was 4.19.

Take `OC[C@H]1[C@H](O)C=CCN1CCCCCOCC12CC3CC(CC(C3)C1)C2`: the pIC50 is 3.40.

For the compound `OC[C@@H]1[C@H](O)[C@H](O)CCN1CCCCCOCC12CC3CC(CC(C3)C1)C2`, the pIC50 is 3.96.

In the case of `OC[C@@H]1[C@@H](O)CCCN1CCCCCOCC12CC3CC(CC(C3)C1)C2`, the pIC50 was 3.76.

Turning to `CCCCN1CCC[C@@H](O)[C@@H]1CO`, the pIC50 was 4.00.

Consider `CCCCN1CC[C@H](O)[C@H](O)[C@H]1CO`, for which the pIC50 was below 3.00.

Turning to `CCCCN1CC[C@H](O)[C@H](O)[C@@H]1CO`, the pIC50 was below 3.00.

On to `CCCCN1CC[C@H](O)[C@@H](O)[C@@H]1CO`, for which the pIC50 was below 3.00.

For `OC[C@@H]1[C@H](O)[C@@H](O)CCN1CCCCCOCC12CC3CC(CC(C3)C1)C2`, the pIC50 was 4.10.

Regarding `OC[C@H]1NCC=C[C@H]1O`, the pIC50 was below 3.00.

Turning to `OC[C@@H]1NCC[C@H](O)[C@H]1O`, the pIC50 is below 3.00.

Consider `OC[C@H]1NCCC[C@@H]1O`, for which the pIC50 is below 3.00.

Consider `OC[C@H]1NCC[C@@H](O)[C@@H]1O` [FAGOMINE], for which the pIC50 is below 3.00.

For the compound `OC[C@@H]1NCC[C@@H](O)[C@@H]1O`, the pIC50 is below 3.00.

For `CCCCN1CC[C@@H](O)[C@H](O)[C@H]1CO`, the pIC50 is below 3.00.

For the compound `OC[C@H]1NCCC[C@H]1O`, the pIC50 was below 3.00.

Turning to `OC[C@H]1NCC[C@@H](O)[C@H]1O`, the pIC50 was below 3.00.

`CCCCN1CC[C@H](O)[C@@H](O)[C@H]1CO`: the pIC50 was below 3.00.

Another test addresses T2, Beta-glucosidase (Homo sapiens, UniProt Q9HCG7).
T2 sequence (Q9HCG7 whole entry): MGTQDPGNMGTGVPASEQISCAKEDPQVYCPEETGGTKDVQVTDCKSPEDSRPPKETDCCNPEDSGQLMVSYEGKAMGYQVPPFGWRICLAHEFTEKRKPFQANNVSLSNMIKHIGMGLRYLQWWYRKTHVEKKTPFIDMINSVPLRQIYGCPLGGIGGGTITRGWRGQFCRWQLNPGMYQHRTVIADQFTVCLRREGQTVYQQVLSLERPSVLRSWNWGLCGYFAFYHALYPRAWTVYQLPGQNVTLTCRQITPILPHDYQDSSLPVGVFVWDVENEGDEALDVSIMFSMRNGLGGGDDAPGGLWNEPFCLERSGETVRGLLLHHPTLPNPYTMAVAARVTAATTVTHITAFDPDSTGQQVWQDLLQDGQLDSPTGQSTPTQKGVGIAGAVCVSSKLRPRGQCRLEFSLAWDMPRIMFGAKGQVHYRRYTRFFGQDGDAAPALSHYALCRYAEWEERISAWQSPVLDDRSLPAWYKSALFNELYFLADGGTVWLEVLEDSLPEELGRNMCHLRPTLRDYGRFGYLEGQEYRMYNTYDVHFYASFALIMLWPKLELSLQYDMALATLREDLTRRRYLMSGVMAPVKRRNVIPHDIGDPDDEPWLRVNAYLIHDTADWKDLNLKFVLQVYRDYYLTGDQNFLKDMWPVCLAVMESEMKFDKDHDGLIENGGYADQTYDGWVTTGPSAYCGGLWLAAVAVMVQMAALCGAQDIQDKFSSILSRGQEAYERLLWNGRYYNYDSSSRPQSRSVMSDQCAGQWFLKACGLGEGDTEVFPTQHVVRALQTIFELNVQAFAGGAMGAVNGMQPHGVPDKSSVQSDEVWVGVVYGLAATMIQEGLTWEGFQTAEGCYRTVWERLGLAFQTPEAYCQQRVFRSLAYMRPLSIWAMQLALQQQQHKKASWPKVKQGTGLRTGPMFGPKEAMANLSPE
Kind of test: Inhibition of glucosylceramidase 2 from spleen of patient with gaucher's disease by fluorimetric analysis.
`OC[C@H]1[C@H](O)[C@@H](O)CCN1CCCCCOCC12CC3CC(CC(C3)C1)C2` gave a pIC50 of 4.70.

With `OC[C@@H]1[C@H](O)CCCN1CCCCCOCC12CC3CC(CC(C3)C1)C2`, the pIC50 was below 3.00.

`OC[C@@H]1[C@@H](O)[C@H](O)CCN1CCCCCOCC12CC3CC(CC(C3)C1)C2` had a negative logarithm of the IC50 (pIC50) of 6.00.

`OC[C@H]1[C@@H](O)[C@@H](O)CCN1CCCCCOCC12CC3CC(CC(C3)C1)C2` gave a pIC50 of 4.12.

In turn, `CCCCN1CC=C[C@@H](O)[C@H]1CO` had a pIC50 below 3.00.

`OC[C@@H]1[C@H](O)C=CCN1CCCCCOCC12CC3CC(CC(C3)C1)C2` showed a pIC50 of 3.89.

Compound `OC[C@H]1[C@H](O)C=CCN1CCCCCOCC12CC3CC(CC(C3)C1)C2` gave a pIC50 below 3.30.

`OC[C@@H]1[C@H](O)[C@H](O)CCN1CCCCCOCC12CC3CC(CC(C3)C1)C2` gave a negative logarithm of the IC50 (pIC50) of 5.19.

As to `OC[C@@H]1[C@@H](O)CCCN1CCCCCOCC12CC3CC(CC(C3)C1)C2`, the pIC50 was 4.00.

On to `OC[C@H]1[C@@H](O)CCCN1CCCCCOCC12CC3CC(CC(C3)C1)C2`, for which the pIC50 is 3.30.

Turning to `CCCCN1CCC[C@@H](O)[C@@H]1CO`, the pIC50 is below 3.30.

For the compound `CCCCN1CC[C@H](O)[C@H](O)[C@H]1CO`, the pIC50 was 3.00.

As for `CCCCN1CC[C@H](O)[C@H](O)[C@@H]1CO`, the pIC50 was below 3.00.

Compound `CCCCN1CC[C@H](O)[C@@H](O)[C@@H]1CO` had a pIC50 below 3.00.

As for `OC[C@@H]1[C@H](O)[C@@H](O)CCN1CCCCCOCC12CC3CC(CC(C3)C1)C2`, the pIC50 was 5.52.

`OC[C@H]1NCC=C[C@H]1O` had a pIC50 below 3.00.

With `OC[C@@H]1NCC[C@H](O)[C@H]1O`, the pIC50 was below 3.00.

Turning to `OC[C@H]1NCCC[C@@H]1O`, the pIC50 is below 3.00.

For `OC[C@H]1NCC[C@@H](O)[C@@H]1O` [FAGOMINE], the pIC50 is below 3.00.

For `OC[C@@H]1NCC[C@@H](O)[C@@H]1O`, the pIC50 was below 3.00.

For `CCCCN1CC[C@@H](O)[C@H](O)[C@H]1CO`, the pIC50 is below 3.00.

In turn, `OC[C@H]1NCCC[C@H]1O` had a pIC50 below 3.00.

For the compound `OC[C@H]1NCC[C@@H](O)[C@H]1O`, the pIC50 is below 3.00.

`CCCCN1CC[C@H](O)[C@@H](O)[C@H]1CO` showed a pIC50 below 3.00.
